Experimental data from US11999987B2, “Bacterial cocultures expressing a bacteriocin system” (Lallemand Hungary Liquidity Management LLC, priority 2020, dated 2024).

Experiments:
[1] = system: Lb. paracasei E3.1 harboring the empty vector; assay: Growth of Lb. paracasei E3.1 (empty vector) in MRS with nisin, OD600; assay type: cell-based, Lactobacillus paracasei; conditions: MRS supplemented with 500 ppm of nisin; empty vector strain; FIG. 1
Procedure: (§1) Resulting Lb. paracasei strains (±the nisin resistance construct) were grown in MRS (no nisin) and MRS supplemented with 500 ppm of nisin. The OD600 was monitored. When nisin was absent from the media both strains grew identically, indicating no deleterious effect of NisIEFG expression (FIG. 1).

[2] = system: Lb. paracasei E3.1 expressing pDW2-P5-nisIEFG; assay: Growth of Lb. paracasei E3.1 expressing the nisin autoimmunity construct in MRS with nisin, OD600; assay type: cell-based, Lactobacillus paracasei; conditions: MRS supplemented with 500 ppm of nisin; strain expressing pDW2-P5-nisIEFG; FIG. 1
Procedure: as §1

nisin was tested, and the “growth (OD600) in the presence of nisin” value [1] was “completely inhibited” and the “growth rate (OD600) in the presence of nisin” value [2] was “only a minimal decrease in growth rate”.
